Results on 3 substances are retold here after article PMC12343078, “PeptideMiner—neuropeptide discovery across the animal kingdom” (GigaScience, 2025).

“Also recorded” adds a separate entry of the source. Positions of bridges follow the written chain, without caps; N, C: chain ends. Non-standard residues stand in square brackets, D forms with d. Chains are numbered I, II in the order given. No end group written: not given here. Gla = N[C@@H](CC(C(=O)O)C(=O)O)C(=O)O

The target of the test is T1, human insulin receptor-B (hIR-B) (Homo sapiens, UniProt P06213).
T1 construct: expressed in transfected cells; lysate captured on an anti-IR antibody-coated plate
T1 sequence (P06213 28-758 limits assumed): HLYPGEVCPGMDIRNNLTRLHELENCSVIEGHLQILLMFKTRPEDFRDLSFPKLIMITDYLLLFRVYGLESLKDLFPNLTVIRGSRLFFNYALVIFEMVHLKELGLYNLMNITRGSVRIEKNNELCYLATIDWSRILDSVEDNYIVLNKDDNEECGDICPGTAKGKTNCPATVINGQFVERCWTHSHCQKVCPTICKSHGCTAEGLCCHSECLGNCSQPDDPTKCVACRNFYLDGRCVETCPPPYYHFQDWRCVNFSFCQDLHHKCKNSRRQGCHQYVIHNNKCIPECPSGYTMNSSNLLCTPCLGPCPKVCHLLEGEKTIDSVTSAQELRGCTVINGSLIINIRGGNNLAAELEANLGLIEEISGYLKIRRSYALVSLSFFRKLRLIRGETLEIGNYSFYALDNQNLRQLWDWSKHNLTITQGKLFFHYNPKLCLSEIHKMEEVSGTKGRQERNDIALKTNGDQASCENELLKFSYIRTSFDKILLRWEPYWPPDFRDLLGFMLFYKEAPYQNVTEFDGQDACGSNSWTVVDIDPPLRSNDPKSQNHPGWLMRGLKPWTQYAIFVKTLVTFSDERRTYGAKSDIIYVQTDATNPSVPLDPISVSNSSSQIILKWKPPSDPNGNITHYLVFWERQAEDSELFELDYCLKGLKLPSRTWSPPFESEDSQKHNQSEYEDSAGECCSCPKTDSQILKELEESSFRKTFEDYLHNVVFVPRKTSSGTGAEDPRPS
T1 sequence (P06213 763-1382 limits assumed): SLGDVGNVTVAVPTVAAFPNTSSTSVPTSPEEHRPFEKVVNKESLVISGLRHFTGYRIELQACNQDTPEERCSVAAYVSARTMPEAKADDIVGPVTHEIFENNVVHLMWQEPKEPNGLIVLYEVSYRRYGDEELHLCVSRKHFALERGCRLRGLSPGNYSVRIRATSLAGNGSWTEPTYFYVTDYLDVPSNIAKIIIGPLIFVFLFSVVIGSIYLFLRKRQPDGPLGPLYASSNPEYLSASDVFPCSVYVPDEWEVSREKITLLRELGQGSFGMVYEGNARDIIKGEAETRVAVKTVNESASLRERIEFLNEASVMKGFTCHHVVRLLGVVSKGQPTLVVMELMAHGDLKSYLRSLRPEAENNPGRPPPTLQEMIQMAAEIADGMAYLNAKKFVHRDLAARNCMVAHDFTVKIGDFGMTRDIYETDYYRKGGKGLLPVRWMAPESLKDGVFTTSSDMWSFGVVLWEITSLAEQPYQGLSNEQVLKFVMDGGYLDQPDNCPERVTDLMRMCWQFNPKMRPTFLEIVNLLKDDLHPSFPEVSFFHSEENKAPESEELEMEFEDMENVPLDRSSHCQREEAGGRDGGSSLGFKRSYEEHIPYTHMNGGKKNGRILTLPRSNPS
The test is described as follows: Competition binding to hIR-B against Eu-labeled human insulin. On the procedure:
Receptor binding was measured as described previously. […] Cells were serum-starved for 4 hours before lysis. Lysates were captured in a 96-well plate previously coated with anti-IR antibody. […] After washing, time-resolved fluorescence was measured using 340-nm excitation and 612-nm emission filters with the BMG Lab Technologies Polarstar fluorometer.
As to “I: NSDTPKHRCGSELADQYVYLCHGERNDA-NH2 / II: GIV[Gla]VCCDNPCTVATLRTFCH (disulfide I:9-II:7, I:21-II:20, II:6-II:11; C-terminus assumed) [Con-Ins G4b]”, the “hIR-B binding, result in words” value was “low nanomolar binding”.

Turning to “I: NSDTPKHRCVSELADQYVQLCH-NH2 / II: GIV[Gla]VCCDNPCTVATLRTFCH (disulfide I:9-II:7, I:21-II:20, II:6-II:11; C-terminus assumed) [Con-Ins G3c]”, the “hIR-B binding, result in words” value is “completely abolishes hIR-B binding”.

On to “I: TNIPATLILQKHRCGSELADQYVQLCH-NH2 / II: GIV[Gla]VCCDNPCTVATLRTFCH (disulfide I:14-II:7, I:26-II:20, II:6-II:11; C-terminus assumed) [Con-Ins G7]”, for which the “hIR-B binding, result in words” value is recorded as “potent hIR-B binding; also recorded: low nanomolar binding”.
